Test [1] has as its target T1, σ1 receptor (Cavia porcellus, UniProt Q60492).
T1 construct: The membranes were prepared from guinea pig brain (minus cerebellum) as described above; from tissue; host or cells: guinea pig brain (minus cerebellum) membranes
The experiment in a line: Sigma-1 receptor competition binding assay with [3H]-(+)-pentazocine. Details: species or system guinea pig. The conditions noted are these: apparent Ki (Cheng-Prusoff), brain membranes. The procedure:
The in vitro σ1 receptor binding affinities of rhenium coordinated complexes were determined in a competition assay using […] and high-affinity σ1 ligand [3H]-(+)-pentazocine (28 Ci/mmol, NEN Life Science Inc., Cambridge, Mass.). See, Mol. Neuropharmacol. 1993, 3, 117-126.
The membranes were prepared from guinea pig brain (minus cerebellum) as described above and stored at −70 ° C. Twelve concentrations of the nonradioactive rhenium complexes ranging from 1×10^−11 to 1×10^−3 and protein samples (0.15 mg of membrane protein) were incubated with […] [3H]-(+)-pentazocine in a total volume of 0.25 mL of Tris-HCl (50 mM, pH 8.0). Incubations were carried out for 120 min at 25° C. All assays were terminated by dilution with 5 mL of ice-cold Tris-HCl (10 mM), pH 8.0, and solution were filtered through glass-fiber filters (Whatman GF/F; presoaked in 0.5% polyethyleneimine for 30 min at 25° C.). Filters were then washed three times with 5 mL of ice-cold Tris-HCl (50 mM, pH 8.0), and counted in Hionic-Fluor cocktail (Packard, Groningen, the Netherlands). The corresponding IC50 values were determined with Origin 6.0 software (OriginLab, Northampton, Mass.) and were used for the calculation of the apparent Ki values with the Cheng-Prusoff equation. See, Biochem. Pharmacol. 1973, 22, 3099-3108.

For test [2], the target named is T2, 5HT1A receptor (Rattus norvegicus, UniProt P19327).
T2 construct: The brains were rapidly removed, and hippocampus, frontal cortex, hypothalamus, and striatum were hand-dissected on ice; from tissue; host or cells: male Sprague-Dawley rat hippocampus membranes
T2 sequence (P19327 1-422): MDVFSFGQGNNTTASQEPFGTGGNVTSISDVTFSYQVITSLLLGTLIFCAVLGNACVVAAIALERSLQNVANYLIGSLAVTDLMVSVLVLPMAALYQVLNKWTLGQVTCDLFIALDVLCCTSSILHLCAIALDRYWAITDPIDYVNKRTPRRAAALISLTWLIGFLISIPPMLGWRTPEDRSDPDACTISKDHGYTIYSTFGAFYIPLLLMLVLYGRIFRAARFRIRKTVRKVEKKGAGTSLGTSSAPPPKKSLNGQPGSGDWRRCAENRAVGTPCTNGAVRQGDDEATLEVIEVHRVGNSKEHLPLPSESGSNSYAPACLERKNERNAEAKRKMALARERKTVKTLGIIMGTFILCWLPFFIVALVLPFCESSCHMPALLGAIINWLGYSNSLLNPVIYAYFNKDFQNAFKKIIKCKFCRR
The experiment in a line: 5HT1A receptor competition binding assay with [3H]-8-OH-DPAT. The conditions noted are these: apparent Ki, rat hippocampus. The procedure:
The in vitro 5HT1A binding affinities of rhenium coordinated complexes were determined in a competition assay using rat hippocampus and high-affinity 5HT1A-ligand [^3H]-8-OH-DPAT (135 Ci/mmol, NEN Life Science Inc., Cambridge, Mass.). See, Brain Res. 1995, 673, 217-225.
Male Sprague-Dawley rats (weighing 150-170 g) were sacrificed using anesthesia agent isoflurane. The brains were rapidly removed, and hippocampus, frontal cortex, hypothalamus, and striatum were hand-dissected on ice and stored at −70° C. Tissue was thawed at room temperature and homogenized using a Brinkmann Polytron tissue disrupter in 50 volumes (wt/vol) of ice-cold 50 mM Tris-HCl buffer (pH 7.4). The suspension was centrifuged twice at 27,000 g for 20 min at 4° C. The membrane pellets were resuspended in 50 volumes of (wt/vol) Tris-HCl buffer and incubated at 37° C. for 20 min in a water bath, before a final centrifugation step (27,000 g; 20 min; 4° C.). The final tissue pellets were stored at −70° C. until assayed.
Twelve concentrations of the nonradioactive rhenium complexes ranging from 1×10^−11 to 1×10^−4 and protein samples (0.15 mg of membrane protein) were incubated with 1.5 nM [^3H]-8-OH-DPAT in a total volume of 0.25 mL of Tris-HCl (50 mM, pH 7.4, 10 mM MgSO4). Incubations were carried out for 60 min at 25° C. All assays were terminated by dilution with 5 mL of ice-cold Tris-HCl (10 mM), pH 7.4, and solution were filtered through glass-fiber filters (Whatman GF/F; presoaked in 0.5% polyethyleneimine for 30 min at 25° C.). Filters were then washed three times with 5 mL of ice-cold Tris-HCl (50 mM, pH 7.4), and counted in Hionic-Fluor cocktail (Packard, Groningen, the Netherlands). The corresponding IC50 values were determined with Origin 6.0 software (OriginLab, Northampton, Mass.) and were used for the calculation of the apparent Ki values with the Cheng-Prusoff equation. See, Biochem. Pharmacol. 1973, 22, 3099-3108.

Each structure is given as a SMILES string.

T1 sequence (Q60492 whole entry): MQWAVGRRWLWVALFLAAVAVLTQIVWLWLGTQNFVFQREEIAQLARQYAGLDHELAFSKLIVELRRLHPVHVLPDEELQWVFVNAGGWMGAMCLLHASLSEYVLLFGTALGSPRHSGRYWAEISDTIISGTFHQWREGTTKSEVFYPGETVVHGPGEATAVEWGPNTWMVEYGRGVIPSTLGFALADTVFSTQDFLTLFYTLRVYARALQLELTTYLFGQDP

Take `COc1ccccc1C1CCN(CCCN2CC[S][Re]3(=[O])[S]CC[N]3C(=O)C2)CC1` (stereo not shown) [Re-16]: the Ki in test [1] came to 4830 nM; in test [2], 4.5 ± 0.4 nM.

For the molecule `O=C1CN(CCCN2CCC(Cc3ccccc3)CC2)CC[S][Re]2(=[O])[S]CC[N]12` (stereo not shown) [Re-15], the values for the Ki in test [1] and in test [2] were 547 nM and 589 ± 70 nM, respectively.

For the origin of these results see patent US20060159617A1, “Small technetium-99m and rhenium labeled agents and methods for imaging tissues, organs and tumors” (priority 2002, published 2006).
